Experiment: molar heat capacity at constant pressure
Settings: Liquid, Flow calorimetry

CCCCCCCCC(=O)OCC [ethyl nonanoate]
Settings	molar heat capacity at constant pressure [J/K/mol]
303.21 K, 15150 kPa	369
303.22 K, 9980 kPa	370
303.24 K, 20090 kPa	369
303.25 K, 5000 kPa	371
303.27 K, 24930 kPa	368
303.31 K, 110 kPa	371
313.21 K, 19900 kPa	375
313.22 K, 14910 kPa	376
313.23 K, 170 kPa	377
313.24 K, 9850 kPa	376
313.24 K, 24930 kPa	374
313.26 K, 5090 kPa	377
323.19 K, 4970 kPa	385
323.22 K, 110 kPa	386
323.22 K, 24920 kPa	382
323.23 K, 10020 kPa	384
323.24 K, 20090 kPa	382
323.26 K, 15190 kPa	383
333.16 K, 4930 kPa	393
333.18 K, 140 kPa	394
333.18 K, 9950 kPa	393
333.19 K, 20150 kPa	392
333.21 K, 15110 kPa	393
333.23 K, 25020 kPa	392
343.19 K, 5070 kPa	400
343.19 K, 9940 kPa	400
343.19 K, 14950 kPa	400
343.2 K, 110 kPa	401
343.21 K, 19870 kPa	399
343.22 K, 25210 kPa	399
353.11 K, 4910 kPa	407
353.14 K, 160 kPa	407
353.14 K, 10160 kPa	406
353.15 K, 14930 kPa	406
353.2 K, 20210 kPa	405
353.23 K, 25190 kPa	405
363.12 K, 110 kPa	414
363.14 K, 5090 kPa	413
363.16 K, 15060 kPa	412
363.17 K, 10020 kPa	413
363.17 K, 20130 kPa	411
363.19 K, 25160 kPa	410
373.12 K, 100 kPa	420
373.12 K, 4830 kPa	420
373.13 K, 10020 kPa	419
373.13 K, 15150 kPa	418
373.14 K, 20170 kPa	418
373.14 K, 24950 kPa	417
383.18 K, 160 kPa	427
383.2 K, 4950 kPa	426
383.2 K, 10190 kPa	425
383.2 K, 15000 kPa	425
383.22 K, 20130 kPa	424
383.22 K, 24950 kPa	424
393.18 K, 110 kPa	434
393.18 K, 5090 kPa	433
393.18 K, 10020 kPa	433
393.19 K, 15150 kPa	433
393.2 K, 20190 kPa	432
393.24 K, 24960 kPa	432

CCCCCCCCCCCC(=O)OCC [ethyl dodecanoate]
Settings	molar heat capacity at constant pressure [J/K/mol]
313.26 K, 5030 kPa	472
313.26 K, 9990 kPa	471
313.27 K, 140 kPa	474
313.27 K, 14970 kPa	470
313.28 K, 25150 kPa	469
313.29 K, 20040 kPa	470
323.22 K, 160 kPa	480
323.22 K, 20140 kPa	475
323.22 K, 25150 kPa	474
323.23 K, 4980 kPa	478
323.23 K, 10110 kPa	477
323.23 K, 14920 kPa	476
333.2 K, 140 kPa	487
333.2 K, 4920 kPa	485
333.2 K, 10150 kPa	483
333.2 K, 15060 kPa	482
333.2 K, 19970 kPa	481
333.21 K, 25020 kPa	480
343.15 K, 140 kPa	493
343.16 K, 5160 kPa	491
343.16 K, 10270 kPa	489
343.19 K, 15130 kPa	488
343.19 K, 20220 kPa	487
343.21 K, 25180 kPa	486
353.14 K, 180 kPa	501
353.14 K, 4970 kPa	498
353.17 K, 9950 kPa	496
353.17 K, 14920 kPa	494
353.17 K, 20020 kPa	492
353.18 K, 24950 kPa	491
363.17 K, 110 kPa	508
363.18 K, 5010 kPa	507
363.29 K, 10190 kPa	505
363.29 K, 15070 kPa	503
363.29 K, 20150 kPa	501
363.29 K, 25100 kPa	500
373.19 K, 110 kPa	516
373.2 K, 4900 kPa	514
373.21 K, 10170 kPa	512
373.21 K, 15020 kPa	511
373.22 K, 19850 kPa	509
373.25 K, 24930 kPa	508
383.23 K, 100 kPa	523
383.23 K, 5000 kPa	521
383.23 K, 10040 kPa	520
383.24 K, 15080 kPa	518
383.25 K, 19940 kPa	517
383.28 K, 25150 kPa	515
393.2 K, 4910 kPa	530
393.22 K, 110 kPa	532
393.22 K, 10100 kPa	530
393.23 K, 19780 kPa	528
393.27 K, 15020 kPa	529
393.27 K, 24830 kPa	527
